Read-outs that look alike come from different tables or passages of the source.
What was measured:
site IQf in complex I = experiment: Amplex UltraRed assay of superoxide/hydrogen peroxide production during forward electron transport (glycerol 3-phosphate plus 50 µM glutamate plus malate); format: biochemical, rat
Experimental: Cuvette- and plate-based assays of superoxide/hydrogen peroxide production during RET using 12.5 mM G3P (or during FET using 12.5 mM G3P, 50 µM glutamate plus 50 µM malate) as substrate were conducted at 37°C as described [45] using 0.2 mg of mitochondrial protein/ml in 3 ml (plastic cuvettes, Varian Cary Eclipse spectrofluorometer (Ex 560 nm/Em 590 nm)) or 0.2 mg mitochondrial protein/ml, 0.01 mg/well (Pherastar FS (BMG) fluorescence microplate reader, Ex 540 nm/Em 590 nm), in KHEB medium (120 mM KCl, 3 mM HEPES, 1 mM EGTA, 0.3% w/v bovine serum albumin, pH 7.4) containing 25 U/ml SOD1, 25 µM Amplex Ultrared, and 5 U/ml HRP, plus dimethyl sulfoxide (DMSO) or treatments as indicated.

[1] = tested on: isolated rat skeletal muscle mitochondria; format: biochemical
Experimental: Mitochondria were immobilised in coverglass-bottomed 96-well microplates (Greiner Sensoplate) by centrifugation for 15 min at 1000 g in KHEB medium at 4°C. The microplate was warmed in the 37°C heated environment chamber of a Nikon Eclipse Ti-PFS fully motorised wide-field fluorescence microscope equipped with a Lambda 821 LED light source with Lambda 10-3 emission filter wheel and Andor iXon Life 888 EMCCD camera, controlled by NIS Elements 5.20. TMRM (100 nM) was added to the wells, and in successive additions substrates were added without changing the TMRM concentration. TMRM was imaged using a Super Fluor 40× NA1.3 oil lens, a 586/20 nm excitation filter on a 560 nm LED, a 593 nm dichroic mirror, and a 641/75 nm emission filter capturing the centre 512 × 512 pixels area of the camera with no binning and with 1.5× optical zoom (0.17 µm/pixel resolution). Multiple (typically 25) view fields were recorded in one to three wells for 3 time points per substrate condition. In some experiments, TMRM imaging was followed by recording frames of NAD(P)H autofluorescence in the same view fields using a 340 nm LED, 414 nm dichroic mirror and 460/80 nm emission filter. The first autofluorescence frame matched the substrate condition of the last TMRM frame and then the recording of three more frames followed the application of rotenone (4 µM) or FCCP (4 µM) by 1 min delay. Recordings were analysed in Image Analyst MKII 4.2.1 (Image Analyst Software, Novato, CA) by performing image registration, background subtraction and ROI-based intensity measurement. Background was subtracted first as a blank image and then frame-by-frame using the ‘Mean of pixels below percentile of max projection (dilated mask)' method. Single-mitochondria ROIs were generated by morphological segmentation using a modification of the ‘Mitochondria : cell volume fractionator (basic)' standard pipeline. ΔψM was calculated using the Nernst equation. Because fluorescence was small in the absence of substrates, polarisation by G + M was calculated from TMRM fluorescence intensities (FTMRM) by comparison to succinate as 61 mV × log(FTMRM_G + M/FTMRM_succinate), which expresses how much less polarisation was provided by G + M than succinate, in millivolts. Polarisation by G3P was calculated by comparison to G + M as 61 mV × log(FTMRM_G3P/FTMRM_G + M), which expresses the millivolts hyperpolarisation when G3P is added in the presence of G + M. Changes in NAD(P)H autofluorescence (ΔNADH) were expressed as the observed fluorescence intensity change normalised to the population mean fluorescence before rotenone (or FCCP) addition. […] This was then converted to log2-fold changes to provide symmetrical distributions. Scatter plots were generated and analysed in Mathematica 13 (Wolfram Research).

Fa2N-4 cells [2] = experiment: NAD(P)H autofluorescence two-photon imaging, single-cell analysis; format: cell-based
Experimental: Subcellular resolution micrographs of NAD(P)H autofluorescence were recorded using an upright Zeiss LSM 7MP multiphoton microscope, equipped with a Chameleon Vision II mode-locked laser set to 710 nm (1–1.5% of the 745 mW output power was used) and W Plan-Apochromat 20×/1.0 DIC M27 75 mm dipping water immersion objective lens and detection of emission between 420 and 480 nm. 1024 × 1024 pixels images (0.2 µm/pixel) were recorded at maximal scan speed and 8× frame averaging. Time courses of two frames, one before and one after the addition of rotenone (2 µM), FCCP (4 µM) or vehicle (DMSO 1 : 2000) were recorded using the Zeiss Multi Time Series macro. The cell monolayer was auto-focused at one x,y-position, and four other positions were imaged for analysis in each dish. Recordings were analysed in Image Analyst by rigid image registration, background subtraction and ROI-based intensity measurement. Unbiased single-cell ROIs were generated in using Cellpose 2.0 [48] with the ‘cyto2' neural network. Histograms were generated in Mathematica.

Fa2N-4 cells [3] = experiment: Subcellular analysis of NAD(P)H autofluorescence (mitochondria within cells); format: cell-based; conditions: rotenone challenge
Experimental: The NAD(P)H autofluorescence multiphoton time courses described above were de-noised by Wiener filtering, cropped based on the Cellpose ROIs resulting in 256 × 256 pixels images of single cells, and surrounding structures were masked in Image Analyst MKII. Then, to compensate for the motility of mitochondria during the time courses, B-spline-based deformable image registration was performed in Elastix 5.0.1 [49]. Image registration was quality controlled subjectively plus by calculating Pearson’s cross-correlation coefficient between before- and after-rotenone frames, and cells with a value lower than 0.6 were discarded. The pixel-by-pixel ratio of after- over before-treatment frames was calculated, masked by mitochondrial profiles generated by Otsu’s threshold method (with a logical OR of before- and after-frames), and log2 of the ratios was taken for all pixels. Image histograms were saved to Excel and analysed in Mathematica using a maximum log-likelihood method for fitting the binned log2-fold intensity values with normal distribution(s). Mock treatments were fitted well with a single, symmetric distribution. We attribute this change of pixel intensities between the consecutive frames of the time course to motility artefacts and noise. The distribution of log2-fold pixel intensity changes for rotenone-treated cells was wider, and therefore we coarsely modelled it as sum of two normal distributions (rotenone-responsive and unresponsive mitochondria, with σ matching that of the mock-treatment modelling motility and noise effects). […] This analysis was repeated for individual single cells (total 185 in three experiments).

[4] = tested on: rat skeletal muscle mitochondria; experiment: Respiration of isolated mitochondria on glycerol 3-phosphate (Seahorse extracellular flux analyzer); format: biochemical; conditions: 1–10 µM; in the presence of ADP; n = 2–3
Experimental: Mitochondrial respiration was assayed at 37°C using an Agilent Seahorse XFe-24 as described previously, using 12.5 mM G3P as substrate.

[5] = plate-reader titrations, IQf versus IQr, 2 µM atpenin A5, 10 µM S3QEL3
[6] = rotenone 4 µM challenge, 50 µM G + M plus 12.5 mM G3P

## C=C(C)[C@H]1Cc2c(ccc3c2O[C@@H]2COc4cc(OC)c(OC)cc4[C@@H]2C3=O)O1 [rotenone]
Site IQf in complex I; [5]
  Sensitivity of superoxide/hydrogen peroxide production from site IQf compared with site IQr: equally sensitive
[1]; [6]
  Mitochondria responding by significantly increasing the reduction of their NADH/NAD+ pool: 65%
  Mitochondria that did not change NAD(P)H fluorescence significantly: 30 ± 9%
[1]; rotenone 4 µM challenge, 50 µM G + M plus 12.5 mM G3P, n = 4
  Mitochondria responding by significant oxidation of NADH to NAD+: 4.2 ± 1.1%
Fa2N-4 cells [2]; rotenone challenge (4 µM in legend, 2 µM in methods), n = 4
  Cells responding with an increase in NAD(P)H autofluorescence: 97 ± 4%
Fa2N-4 cells [3]; n = 3
  Cellular mitochondria oxidising on challenge (excess pixel count): 0.5 ± 0.1%
Fa2N-4 cells [3]; n = 3 experiments, 185 cells
  Mitochondria in cells estimated to respond poorly or not at all: 26 ± 3%
  Mitochondria in cells that responded with increased fluorescence: 74 ± 3%
Fa2N-4 cells [3]; responder population
  Mean increase in NAD(P)H fluorescence intensity of responding mitochondria: 50 ± 10%

## N#CC(C#N)=NNc1ccc(OC(F)(F)F)cc1 [FCCP]
Site IQf in complex I
  Sensitivity of superoxide/hydrogen peroxide production from site IQf compared with site IQr: equally sensitive
[1]
  Mitochondria responding with significant oxidation of NADH: 85 ± 2%
Fa2N-4 cells [2]; FCCP 4 µM
  Cells responding with a decrease in NAD(P)H autofluorescence: All cells

## CO[C@@H]1C[C@@H](C[C@H]2CC[C@H](C)[C@H]([C@@H](C)C(=O)O)O2)O[C@]2(O[C@](C)([C@H]3CC[C@@](C)([C@@H]4O[C@@H]([C@H]5O[C@@](O)(CO)[C@H](C)C[C@@H]5C)C[C@@H]4C)O3)C[C@H]2C)[C@@H]1C [nigericin]
Site IQf in complex I; [5]
  Sensitivity of superoxide/hydrogen peroxide production from site IQf compared with site IQr: equally sensitive

## COc1[nH]c(=O)c(C(=O)[C@@H](C)C[C@H](C)[C@@H](Cl)CCl)c(O)c1OC [atpenin A5]
[4]
  Effect on respiration on 12.5 mM G3P: no significant effect

## C/C=C(\C)[C@H](O)[C@H](C)/C=C(C)/C=C/C/C(C)=C/Cc1nc(OC)c(OC)c(O)c1C [piericidin A]
Site IQf in complex I; 10 µM, plate-reader
  Superoxide/hydrogen peroxide production by site IQf at highest concentration: IQf activity reappeared
Site IQf in complex I; [5]
  Sensitivity of superoxide/hydrogen peroxide production from site IQf compared with site IQr: equally sensitive
